Experiments:
HLA-A*0201 molecule = molecular target: T1, HLA-A*0201 molecule (Homo sapiens, UniProt P04439, D140Y/D185E/D98H/E176V/E277Q/G131W/G231S/I119V/I121R/I166T/I218V/L300P/L318F/N151K/N90K/P208A/P217A/Q86G/Q94H/R138H/R169H/T345S); experiment: T2A2 cell-binding assay; conditions: T2A2 cells; FI = (MFI of peptide - MFI of control without peptide)/MFI of control without peptide; anti-HLA-A2 BB7.2, flow cytometry; FI > 1 = high binding affinity
T1 construct: T2A2 cells (TAP-deficient HLA-A2 molecules overexpressing, cultured in IMDM medium); host or cells: T2A2 cells
Experimental: The binding affinity of neoepitope to the MHC molecule and the stable neoepitope/MHC complex are critical for inducing T cell immune response, so we first performed a T2A2 cell-binding assay and stabilization assay. The T2A2 cell-binding assay was measured as in our previous study. The binding affinity was computed as follows: fluorescence index (FI) = (mean fluorescence intensity (MFI) of peptide group-MFI of the dissolved buffer without peptide group)/MFI of the dissolved buffer without peptide group.

[1] = test system: peptide-pulsed T2A2 cells; experiment: Cytotoxicity assay of peptide-induced T cells from donor PBMCs; assay type: cell-based, human; conditions: donors B–F; E/T 12.5:1, 25:1, 50:1; T2A2 loaded with 50 μg/mL peptide
Experimental: (§1) DCs involve and play an important role in initiating CD8^+ T cell response. Consequently, ten HLA-A2^+ healthy donors’ PBMCs were isolated, autologous DCs were generated, and CTLs were induced according to the procedure described previously. In brief, PBMCs were seeded at a density of 5 × 10^6 cells/well in a 6-well plate, and after 3 h, the non-adherent cells were removed and cryopreserved for future incubation with mature autologous DCs. Differentiation of the adherent cells into dendritic cells was induced by GM-CSF (100 ng/mL, #300-03, PeproTech, Rocky Hill, NJ, USA) and IL-4 (100 ng/mL; #200-04, PeproTech, USA), with replenishment every 2 days. On day 5, maturation of DCs was induced using 100 ng/mL LPS (#L4516, Sigma-Aldrich, St. Louis, MO, USA), and maturation was checked on day 8 by flow cytometry (BD FACSCelesta™) using markers for anti-human HLA-DR, anti-human CD80, and anti-human CD86. Then, mature DCs (1 × 10^5) were pulsed with each 10 μg /mL individual peptide or no peptides (control) for 2 h at 37 °C. Next, peptide-pulsed DCs were used to prime the previously cryopreserved autologous peripheral blood lymphocytes (PBLs) at a DC/PBL ratio of 1:10 using complete RPMI-1640 media supplemented with 100 IU/mL rhIL-2 (#200-02, PeproTech, USA) and 10 ng/mL rhIL-7 (#200-07, PeproTech, USA). Half of the feeding medium was replenished every 2 days. After 7 days, PBLs were restimulated with freshly pulsed autologous DCs every 7 days.
The cytotoxicity of peptide-specific T cells stimulated by mutant peptides was tested by using Cell Trace Far Red (Thermo Scientific, USA). Transfected cells were suspended in PBS (1 × 10^6 cells/mL) and labelled with Cell Trace Far Red as follows: Control target cells and test target cells were marked by 50 μM and 1 mM Cell Trace Far Red, respectively, at 37 °C for 20 min, protected from light. After incubation, target cells were washed with complete media at 37 °C for 5 min. […] Subsequently, test target cells were mixed with control target cells in a tube, washed once, and analyzed by flow cytometry. Specific lysis (%) = (numbers of control target cells—numbers of test target cells)/numbers of control target cells × 100% [28, 29], where, for tumor cells, the control target cells refer to KYSE140-WT cells marked with 50 μM Cell Trace Far Red, and the test target cell refers to KYSE140-WT or KYSE140-MUT cells marked with 1 mM Cell Trace Far Red, respectively (peptide-specific T cells generated from donors G–K’s PBMCs in vitro or generated from spleen lymphocytes of HLA-A2.1/K^b Tg mice in vivo). Additionally, for T2A2 target cells, T2A2 cells unpulsed and marked with 50 μM Cell Trace Far Red were used as the control target cells, while T2A2 cells loaded with MUT peptides or the corresponding WT peptides (50 μg/mL) or T2A2 cells only were marked with 1 mM Cell Trace Far Red and were used as test target cells (peptide-specific T cells stimulated from donors B–F’s PBMCs).

[2] = test system: peptide-pulsed T2A2 cells; experiment: IFN-γ intracellular staining of peptide-induced T cells from donor PBMCs; assay type: cell-based, human; conditions: PBMCs of HLA-A2+ donors B–F, DCs pulsed with 10 μg/mL peptide, three rounds
Experimental: as §1
When target cells were peptide-pulsed T2A2 cells (MUT peptide or its corresponding WT peptide), peptide-specific T cells (from HLA-A2^+ healthy donors B–F) stimulated by MUT peptides were co-cultured with these cells in the presence of BFA for 5 h. Then T cells were marked by anti-human CD3 and anti-human CD8α monoclonal antibody. Thirty minutes later, cells were fixed by fixation buffer (Thermo Scientific, Waltham, MA, USA) for thirty minutes and washed by permeabilization buffer (Thermo Scientific, USA). Permeabilized T cells were marked by anti-human IFN-γ monoclonal antibody.

[3] = molecular target: T2, peptide/HLA-A*0201 complex (Homo sapiens, UniProt P04439, D140Y/D185E/D98H/E176V/E277Q/G131W/G231S/I119V/I121R/I166T/I218V/L300P/L318F/N151K/N90K/P208A/P217A/Q86G/Q94H/R138H/R169H/T345S); experiment: peptide/MHC complex stabilization assay on T2A2 cells; assay type: binding; conditions: T2A2 cells pulsed with 50 μg/mL peptide and 3 μg/mL β2-M 18 h, BFA 1 h; MFI at 0, 2, 4, 6 h; time of half losing MFI of 0 h
T2 construct: T2A2 cells (TAP-deficient HLA-A2 molecules overexpressing, cultured in IMDM medium); β2-M from Merck; host or cells: T2A2 cells
Experimental: For the stabilization test, T2A2 cells were pulsed with 50 μg/mL mutant peptide and 3 μg/mL β2-Microglobulin (β2-M, Merck, Kenilworth, NJ, USA) in IMDM (serum-free) medium for 18 h. After three times washing, free peptides were removed and brefeldin A (BFA, 10 μg/mL, BD Bioscience, San Diego, CA, USA) was added. BFA was removed after 1 h impeding, and the cells were incubated for additional time. Finally, T2A2 was marked with anti-human HLA-A2 PE-Cyanine7 for 30 min, then analyzed by FACS Calibur (BD Bioscience, USA). MFI of 0 h was set as 100%, and the time of half losing MFI of 0 h defined the dissociation complex 50 (DC50). DC50 was computed as follows: (MFI of 0 h-MFI of (2, 4, or 6 h))/MFI of 0 h × 100%.

| FI (fluorescence index) (HLA-A*0201 molecule) | DC50 (dissociation complex 50) [3] [h] | Sequence | lysis cytotoxicity of MUT peptide-induced T cells on T2A2 cells [1] | IFN-γ release of MUT peptide-induced T cells, MUT versus WT peptide-loaded T2A2 cells [2] |
| --- | --- | --- | --- | --- |
| 0.37 |  | ALDMCVKFL [LRP1B-P3707L] |  |  |
| 0.12 |  | ALNKMFFQL [TP53-C135F] |  |  |
| 1.26 | >4 | ALPQHLIRV [TP53-P190L] | strong cytotoxicity activity | cannot effectively distinguish T2A2 cells loaded with WT or MUT peptides |
| 0.20 |  | CLRDYQPFL [LRP2-D1744Y] |  |  |
| 1.27 | >6 | FLIQTEQKL [SYNE1-V7402I] | strong cytotoxicity activity | cannot effectively distinguish T2A2 cells loaded with WT or MUT peptides |
| 0.21 |  | FLTATRQEI [DNAH5-M4495T] |  |  |
| 0.38 |  | FMNELMDII [DNAH5-D4110N] |  |  |
| 0.09 |  | GLFQCGTGL [LRP1B-R3362L] |  |  |
| 0.68 |  | GLPNDDLYI [DNAH5-S3587Y] |  |  |
| 0.13 |  | GMLSPVDFL [NOTCH1-S2202F] |  |  |
| 0.29 |  | ILGEEAPRL [KMT2D-F4722L] |  |  |
| 2.12 | >6 | ILIGETIKI [COX-2 321–329, reference compound] |  |  |
| 1.56 | >6 | ILQDGFLYV [ABCA13-E1359Q] | strong cytotoxicity activity | cannot effectively distinguish T2A2 cells loaded with WT or MUT peptides |
| 0.79 |  | ILWRQDTDL [NFE2L2-I28T] |  |  |
| 0.08 |  | KLLSLLEVL [SYNE1-A65S] |  |  |
| 0.16 |  | LLARNSFEV [TP53-G266A] |  |  |
| 0.53 |  | LLGRNSFEL [TP53-V272L] |  |  |

| FI (fluorescence index) (HLA-A*0201 molecule) | DC50 (dissociation complex 50) [3] [h] | Sequence | lysis cytotoxicity of MUT peptide-induced T cells on T2A2 cells [1] | IFN-γ release of MUT peptide-induced T cells, MUT versus WT peptide-loaded T2A2 cells [2] |
| --- | --- | --- | --- | --- |
| 0.14 |  | LMSRIPHDV [MUC16-Q5024H] |  |  |
| 0.24 |  | NLHSINDFL [ABCA13-D1303H] |  |  |
| 1.12 | <2 | QLQAQLQGV [KMT2D-R4198Q] |  |  |
| 0.42 |  | RMHDVTTPL [NOTCH1-G1995V] |  |  |
| 0.30 |  | RMQRVLSHV [DNAH5-L4406H] |  |  |
| 2.25 | <2 | SIPSFPLPV [MUC16-S5361F] |  |  |
| 1.35 | <2 | SMGDALDSI [MUC16-A4579D] |  |  |
| 1.81 | <4 | TILEELNVV [SYNE1-N4342I] |  |  |
| 0.43 |  | TLTATVNIV [PCDH15-S628L] |  |  |
| 1.54 | <4 | TMPVVSSEV [MUC17-A2414V] |  |  |
| 0.12 |  | TMSERSTLL [MUC17-T3809M] |  |  |
| 0.09 |  | VISDYKYKV [NEB-D3282V] |  |  |
| 3.56 | >6 | VLDDSETTI [MUC16-A9832D] | strong cytotoxicity activity | cannot effectively distinguish T2A2 cells loaded with WT or MUT peptides |
| 0.39 |  | YLLTPNGRV [LRP1B-C2479Y] |  |  |
| 1.67 | <2 | YLPDHHEEL [SYNE1-S7628Y] |  |  |
| 0.49 |  | YMCNSSCMV [TP53-G244V] |  |  |

— article PMC8541546, “Identification of HLA-A2-Restricted Mutant Epitopes from Neoantigens of Esophageal Squamous Cell Carcinoma” (Vaccines, 2021)
